Assay results published in US4956384A, “1,4:3,6-dianhydrosorbitol 2-mononitrate and 5-mononitrate esters and pharmaceutical compositions therefrom” (Chiesi Farmaceutici S.p.A., priority 1987, dated 1990).
Like-named read-outs stand apart in the source and are kept apart here.

What was measured:
[1] = test system: helicoidal strips of rabbit aorta; assay: In vitro vasodilating activity: inhibition of K+-induced contraction of aorta strips; assay type: cell-based, male albino rabbits (New Zealand strain); settings: for IC50: Oryctolagus cuniculus, read-out: ED50 (concentration causing a 50% inhibition of contraction); for Potency ratio, In vitro: Table III; for times more active than the starting mononitrate: in vitro, II vs IS-5N, X vs IS-2N
Procedure: Aorta strips from male albino rabbits (New Zealand strain), prepared according to the method by Furchgott and Bhadrakom--J. Pharm. Exp. Ther. 108, 129 (1953), were contracted with a solution enriched in K^+ (100 mM). When the contraction was stable, the test compounds were added, according to the method of cumulative dosages.
The responses were isometrically recorded and expressed as contraction percentage inhibition. The concentration causing 50% inhibition (ED50) was calculated on the basis of the equation of the linear tract of the dose-response curves. The obtained results expressed as ED50 values are reported in tables I and II (which respectively relate to the compounds substituted at the 2-and and 5-positions), together with the values of the octanol/water partition coefficient. The potency ratio for each compound, in comparison with the starting mononitrate, IS-2-N and IS-5-N, is reported in the same tables.

[2] = octanol/water partition coefficient; assay type: physicochemical; settings: for logP: octanol/water, read-out: Partition coeff. (octanol/H2O) (converted)
[3] = Hypotensive activity in anesthetized rats (mean arterious pressure, i.v. bolus); assay type: in vivo, male albino rats (D strain, Charles River); settings: for Potency ratio, In vivo: Table III; for ED20: iv, read-out: ED20, dose reducing by 20% the mean arterious pressure (graphically calculated)
Procedure: Male albino rats were used (D strain, Charles River) anesthetized with a starting dose of sodium pentobarbital of 60 mg/kg i.p. and thermoregulated at 37° C. Mean arterious pressure was monitored at right carotidis arteria, while the compounds were administered as a bolus into the jugular vein, at constant volumes of 0.3 and 1 ml/kg.
The results, expressed as ED20, dose causing a 20% reduction in the mean arterious pressure (graphically calculated) are expressed in table III, relating to compounds substituted at the 2- and 5-positions.

[4] = Arterious pressure in the anesthetized rabbit, in vein administration; assay type: in vivo
Source text: The above results are confirmed also in another animal species.

[5] = Table I, 2-acyl derivatives of isosorbide 5-nitrate, K+ 100 mM
[6] = Table I, in comparison with isosorbide 5-nitrate
[7] = Table I, 2-acyl derivatives of isosorbide 5-nitrate
[8] = Table II, in comparison with isosorbide 2-nitrate
[9] = Table II, 5-acyl derivatives of isosorbide 2-nitrate
[10] = Table II, 5-acyl derivatives of isosorbide 2-nitrate, K+ 100 mM

Row | logP [2, 7] | logP [2, 9] | Structure (SMILES) | Potency ratios (confidence limits) [1, 6] | Potency ratio, In vitro ([1]; relative to IS-5-N) | Potency ratio, In vivo ([3]; relative to IS-5-N) | ED20 ([3]; anesthetized rat) | Potency ratios (confidence limits) [1, 8] | Potency ratio, In vitro ([1]; relative to IS-2-N) | Potency ratio, In vivo ([3]; relative to IS-2-N) | also measured
1 | 2.09 | – | COc1cc(C(=O)O[C@H]2CO[C@H]3[C@@H]2OC[C@H]3O[N+](=O)[O-])cc(OC)c1OC [II, 1,4:3,6-dianhydrosorbitol 2-(3,4,5-trimethoxy)-benzoate 5-nitrate] | 113.48 (72.30-172.85) | 113 | ≈ 79 | 1.9 µmol/kg | – | – | – | IC50 [1, 5]: 2.72 µM; times more active than the starting mononitrate [1]: about 110 times; times more lipophilic than the starting mononitrate [2]: about 140 times; hypotensive activity in words ([3]; rat): remarkable hypotensive activity in both "in vitro" and "in vivo" tests; reduction in arterious pressure [4]: dose-depending reduction in arterious pressure; strength of arterious pressure reduction higher than that of IS-2N ([4]; vs IS-2N): about 10 times; strength of arterious pressure reduction higher than that of IS-5N ([4]; vs IS-5N): ~100 times
2 | 1.35 | – | CCCCCCCCCCCCCCCC(=O)O[C@H]1CO[C@H]2[C@@H]1OC[C@H]2O[N+](=O)[O-] [III, 1,4:3,6-dianhydrosorbitol 5-nitrate 2-palmitate] | – | – | – | – | – | – | – | IC50 [1, 5]: > 10 µM
3 | 0.579 | – | CC(=O)O[C@H]1CO[C@H]2[C@@H]1OC[C@H]2O[N+](=O)[O-] [IS-2A-5N, isosorbide 2-acetate 5-nitrate, reference compound] | 8.21 (5.11-13.13) | 8 | ≈ 60 | 2.5 µmol/kg | – | – | – | IC50 [1, 5]: 33.9 µM
4 | 1.15 | – | CCC(=O)O[C@H]1CO[C@H]2[C@@H]1OC[C@H]2O[N+](=O)[O-] [IS-2P-5N, isosorbide 5-nitrate 2-propionate, reference compound] | 5.19 (3.53-7.52) | 5 | ≈ 65 | 2.3 µmol/kg | – | – | – | IC50 [1, 5]: 56.8 µM
5 | – | 0.418 | CC(=O)O[C@@H]1CO[C@H]2[C@@H]1OC[C@@H]2O[N+](=O)[O-] [IS-5A-2N, isosorbide 5-acetate 2-nitrate, reference compound] | – | – | – | 2.2 µmol/kg | 6.55 (4.60-9.17) | 6.5 | ≈ 5.4 | IC50 [1, 10]: 3.97 µM
6 | – | 0.947 | CCC(=O)O[C@@H]1CO[C@H]2[C@@H]1OC[C@@H]2O[N+](=O)[O-] [IS-5P-2N, isosorbide 2-nitrate 5-propionate, reference compound] | – | – | – | – | 15.59 (10.74-22.44) | 15.6 | – | IC50 [1, 10]: 1.54 µM
7 | 2.96 | – | COc1ccc(C=CC(=O)O[C@H]2CO[C@H]3[C@@H]2OC[C@H]3O[N+](=O)[O-])cc1OC [IV, 1,4:3,6-dianhydrosorbitol 2-(3,4-dimethoxy)cinnamate 5-nitrate] | ~3 | 3 | ≈ 83 | 1.8 µmol/kg | – | – | – | –
8 | – | 2.5 | COc1cc(C=CC(=O)O[C@@H]2CO[C@H]3[C@@H]2OC[C@@H]3O[N+](=O)[O-])cc(OC)c1OC [IX, 1,4:3,6-dianhydrosorbitol 5-(3,4,5-trimethoxy)cinnamate 2-nitrate] | – | – | – | 0.6 µmol/kg | ~3 | 6 | ≈ 20 | –
9 | – | – | O=C(C=Cc1ccccc1)O[C@H]1CO[C@H]2[C@@H]1OC[C@H]2O[N+](=O)[O-] [V, 1,4:3,6-dianhydrosorbitol 2-cinnamate 5-nitrate] | ~1 | 1 | ≈ 79 | 1.9 µmol/kg | – | – | – | Partition coeff. (octanol/H2O) [2]: very high
10 | 2.44 | – | COc1cc(C=CC(=O)O[C@H]2CO[C@H]3[C@@H]2OC[C@H]3O[N+](=O)[O-])cc(OC)c1OC [VI, 1,4:3,6-dianhydrosorbitol 2-(3,4,5-trimethoxy)cinnamate 5-nitrate] | 7.08 (4.21-11.67) | 7 | ≈ 94 | 1.6 µmol/kg | – | – | – | –
11 | – | 2.2 | COc1ccc(C=CC(=O)O[C@@H]2CO[C@H]3[C@@H]2OC[C@@H]3O[N+](=O)[O-])cc1OC [VII, 1,4:3,6-dianhydrosorbitol 5-(3,4-dimethoxy)cinnamate 2-nitrate] | – | – | – | 0.3 µmol/kg | ~1 | 1 | ≈ 40 | –
12 | – | 1.51 | CCCCCCCCCCCCCCCC(=O)O[C@@H]1CO[C@H]2[C@@H]1OC[C@@H]2O[N+](=O)[O-] [VIII, 1,4:3,6-dianhydrosorbitol 2-nitrate 5-palmitate] | – | – | – | – | – | – | – | –
13 | – | 2.08 | COc1cc(C(=O)O[C@@H]2CO[C@H]3[C@@H]2OC[C@@H]3O[N+](=O)[O-])cc(OC)c1OC [X, 1,4:3,6-dianhydrosorbitol 5-(3,4,5-trimethoxy)-benzoate 2-nitrate] | – | – | – | 0.4 µmol/kg | 1.58 (1.13-2.19) | 1 | ≈ 30 | IC50 [1, 10]: 13.8 µM; times more active than the starting mononitrate [1]: 1.58 times; times more lipophilic than the starting mononitrate [2]: 200 times
14 | 1.48 | – | CCOC(=O)CCCCC(=O)O[C@H]1CO[C@H]2[C@@H]1OC[C@H]2O[N+](=O)[O-] [XI, 1,4:3,6-dianhydrosorbitol 5-nitrate 2-(5-ethoxycarbonyl)pentanoate] | 6.91 (4.78-9.88) | 7 | ≈ 21 | 7 µmol/kg | – | – | – | IC50 [1, 5]: 46.4 µM
15 | – | 1.58 | CCOC(=O)CCCCC(=O)O[C@@H]1CO[C@H]2[C@@H]1OC[C@@H]2O[N+](=O)[O-] [XIII, 1,4:3,6-dianhydrosorbitol 2-nitrate 5-(5-ethoxycarbonyl)-pentanoate] | – | – | – | 2.5 µmol/kg | 6.65 (4.81-9.10) | 6.6 | ≈ 4.8 | –

Row | Structure (SMILES) | logP [2, 7] | logP [2, 9] | Potency ratios (confidence limits) [1, 6] | Potency ratio, In vitro ([1]; relative to IS-5-N) | Potency ratio, In vivo ([3]; relative to IS-5-N) | ED20 ([3]; anesthetized rat) | Potency ratios (confidence limits) [1, 8] | Potency ratio, In vitro ([1]; relative to IS-2-N) | Potency ratio, In vivo ([3]; relative to IS-2-N) | also measured
16 | O=[N+]([O-])O[C@H]1CO[C@H]2[C@@H]1OC[C@H]2O [IS-2-N, 1,4:3,6-dianhydrosorbitol 2-nitrate, reference compound] | – | -0.231 | – | – | – | – | 1.0 | 1 | ≈ 1 | IC50 [1]: 23.9 µM; ED20 ([3]; Rattus norvegicus): 12 µmol/kg
17 | O=[N+]([O-])O[C@@H]1CO[C@H]2[C@@H]1OC[C@@H]2O [IS-5-N, 1,4:3,6-dianhydrosorbitol 5-nitrate, reference compound] | -0.0501 | – | 1.0 | 1 | 1 | – | – | – | – | IC50 [1]: 253 µM; ED20 ([3]; Rattus norvegicus): 150 µmol/kg
18 | O=C(CCC(=O)O[C@H]1CO[C@H]2[C@@H]1OC[C@H]2O[N+](=O)[O-])O[C@H]1CO[C@H]2[C@@H]1OC[C@H]2O[N+](=O)[O-] [XII, bis-(1,4:3,6-dianhydrosorbitol 5-nitrate-2-il)succinate] | 1.81 | – | ~20 | 7 | ≈ 21 | – | – | – | – | ED20 ([3]; Rattus norvegicus): 7 µmol/kg
19 | O=C(O)CCC(=O)O[C@H]1CO[C@H]2[C@@H]1OC[C@H]2O[N+](=O)[O-] [XIV, 1,4:3,6-dianhydrosorbitol 5-nitrate 2-(3-carboxy)propionate] | 0.294 | – | 0.16 (0.10-0.25) | 0.2 | ≈ 0.5 | – | – | – | – | IC50 [1]: 2100 µM; ED20 ([3]; Rattus norvegicus): 300 µmol/kg
